Values of other authors as cited in patent US20190015503A1, “METHODS FOR THE PROGNOSIS AND TREATMENT OF ENDOMETRIAL CARCINOMA” (INSERM (INSTITUT NATIONAL DE LA SANTÉ DE LA RECHERCHE …, priority 2015, published 2019).

Tested on: prostate cancer cells
Details: dose- and time-dependent

COc1cccc(OC)c1-c1cc(C(=O)NC2(C(=O)O)C3CC4CC(C3)CC2C4)nn1-c1ccnc2cc(Cl)ccc12 (stereo not shown) [SR48692]
radio-sensitization (increasing apoptotic cell death and decreasing clonogenic survival): radio-sensitized prostate cancer cells in a dose- and time-dependent manner
